Assay results from PubChem BioAssay (NCI).
Where “and” joins values, the source holds several entries; their conditions need not be identical. Identical values can stand only once.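 96-well plates; 48 h exposure; 5 concentrations. Endpoints by linear interpolation between flanking doses. Not reached: highest tested concentration assigned. GI50 is the concentration that inhibits growth by half. TGI: concentration producing complete growth inhibition.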

Columns and labels:
Experiment in all cases: NCI anticancer screen, dose series, 48 h
[1] = test system: A498 renal
[2] = test system: K-562 leukemia
[3] = test system: OVCAR-4 ovarian
[4] = test system: MOLT-4 leukemia
[5] = test system: UO-31 renal
[6] = test system: SK-MEL-2 melanoma
[7] = test system: NCI-H460 lung
[8] = test system: UACC-62 melanoma
[9] = test system: RXF 393 renal
[10] = test system: MDA-MB-435

| Compound | TGI [1] | TGI [2] [µM] | TGI [3] | TGI [4] [µM] | TGI [5] [µM] | TGI [6] | TGI [7] | TGI [8] [µM] | TGI [9] [µM] | GI50 [2] [µM] | GI50 [9] [µM] | GI50 [3] [µM] | GI50 [4] [µM] | GI50 [5] [µM] | GI50 [6] [µM] | GI50 [7] [µM] | GI50 [8] [µM] | TGI [10] [µM] | GI50 [10] [µM] | GI50 [1] |
| --- | --- | --- | --- | --- | --- | --- | --- | --- | --- | --- | --- | --- | --- | --- | --- | --- | --- | --- | --- | --- |
| c1ccc2c(c1)[nH]c1c2ncc2[nH]c3ccccc3c21 | 9.07 µM | 8.3 | 3.79 µM | 8.96 | 8.79 | 33.7 µM | 5.44 µM | 3.36 |  |  |  |  |  |  |  |  |  |  |  |  |
| CCCCCCCCCCCCCCCCCC[N+](C)(C)Cc1ccc(C[N+](C)(C)CCCCCCCCCCCCCCCCCC)cc1 | 91.7 µM | > 100 | > 100 µM | 51.8 | 56.3 | > 100 µM | > 100 µM | 47.6 | 6.67 |  |  |  |  |  |  |  |  |  |  |  |
| C/C(=C\c1ccn(-c2ccc(N)cc2F)n1)[C@@H]1C[C@@H]2O[C@]2(C)CCC[C@H](C)[C@H](O)[C@@H](C)C(=O)C(C)(C)[C@@H](O)CC(=O)O1 |  | > 50 | > 50 µM | > 21.8 | > 50 | > 50 µM | > 50 µM | > 50 | 0.404 | 0.0197 | 0.0286 | 0.4 | 0.0286 | 0.176 | 0.0518 | 0.0197 | 0.0914 |  |  |  |
| CSC1(CC(=O)N2CCCCC2)C(=O)Nc2ccccc21 (stereo not drawn) | > 100 µM | > 100 | > 100 µM | > 100 | > 100 | > 100 µM | > 100 µM | > 100 |  |  |  |  |  |  |  |  |  | > 100 |  |  |
| FC(F)(F)c1nc(-c2ccccc2)oc1Sc1oc(-c2ccccc2)nc1C(F)(F)F | > 100 µM | > 100 | 90.2 µM | > 100 | > 100 | > 100 µM | > 100 µM | > 100 | > 100 |  |  |  |  |  |  |  |  |  |  |  |
| Cc1c(CC/C(=N\Nc2ccc([N+](=O)[O-])cc2[N+](=O)[O-])c2ccccc2)c2ccccc2n1C | > 100 µM | > 31.6 | > 100 µM | > 64.8 | > 100 | > 100 µM | > 100 µM | > 100 | > 83.6 |  |  |  |  |  |  |  |  |  |  |  |
| COc1cnc2c(c1)C(=O)c1c-2n(CCCNC(C)C)c(=O)c2cc([N+](=O)[O-])ccc12 |  | 0.485 | 0.807 µM | 0.0941 | 0.135 | 0.406 µM | 0.126 µM | 0.123 | 1.38 | 0.0443 | 0.0562 | 0.179 | 0.0223 | 0.0243 | 0.195 | 0.0191 | 0.0191 | 0.261 | 0.109 |  |
| COc1ccc(C2CC(=O)c3c(O)c(OC)c(OC)c(OC)c3O2)cc1O (stereo not drawn) | 33.2 µM | > 100 | > 100 µM | > 100 | > 100 | > 100 µM |  | > 73.7 |  | 0.0365 |  | 3.78 | 0.105 | 2.18 | 0.24 | 0.195 | 0.504 |  |  | 2.34 µM |
| Cc1ccccc1NC(=O)c1ccc([N+](=O)[O-])cc1 | > 100 µM | > 100 | > 100 µM | > 100 | > 100 |  | > 100 µM | > 100 | > 100 |  |  |  |  |  |  |  |  |  |  |  |
| COc1ccc(C2c3c(-c4ccccc4)nn(-c4ccccc4)c3Oc3ncn4nc(CC#N)nc4c32)cc1OC (stereo not drawn) | > 100 µM and 31.3 µM | > 100 | 65.9 µM and 7.38 µM | > 100 | > 100 | > 100 µM and 47.3 µM | > 100 µM and 46.7 µM |  |  |  |  |  |  | > 100 |  |  |  | > 100 | > 100 | > 100 µM and 10.8 µM |
| CCCN1C(=O)CNC(=O)c2[nH]cnc21 | > 100 µM | > 100 |  | > 100 | > 100 | > 100 µM | > 100 µM | > 100 | > 100 |  |  |  |  |  |  |  |  |  |  |  |
| Oc1c(CN2CCN(c3ccccc3F)CC2)cc(Br)c2cccnc12 | 9.23 µM | 19.6 |  | 5.92 | 3.58 | > 51.6 µM | 9.26 µM | 4.09 | 19.1 | 0.366 | 2.05 |  | 0.743 | 0.259 | 7.65 | 0.4 | 0.631 | > 100 | 1.31 | 0.695 µM |
| COC(=O)C1=C(C)N(NC(N)=O)C(C)(O)C12CCOC2=O (stereo not drawn) | > 100 µM | > 100 | > 100 µM | > 100 | > 100 | > 100 µM | > 100 µM |  |  |  |  |  |  |  |  |  |  |  |  |  |
| Nc1ncnc2c1ncn2C1OC(COC2C(CO)OC(OC(C(=O)O)C(O)C(OP(=O)(O)O)C(O)C(=O)O)C(O)C2O)C(O)C1O (stereo not drawn) | > 100 µM | > 100 | > 100 µM | > 100 |  | > 100 µM | > 100 µM |  |  |  |  |  |  |  |  |  |  | > 100 |  |  |
| c1ccc2c3c(ccc2c1)-c1c(ccc2c(NCCCCN4CCCCC4)cccc12)C3 |  | 5.85 | > 31 µM | > 100 | 7.66 | 6.42 µM | 6.74 µM | 3.24 |  | 1.67 |  | 2.81 | 2.09 | 2.61 | 2.92 | 2.08 | 1.79 | 3.31 | 1.91 |  |
| COC1CC(OC)C(O)C(CO)O1 (stereo not drawn) |  | > 100 | > 100 µM | > 100 | > 100 | > 100 µM | > 100 µM | > 100 | > 100 |  |  |  |  |  |  |  |  |  |  |  |
| O=C(C=Nc1ccccc1C(=O)[O-])c1cccs1.O=C(C=Nc1ccccc1C(=O)[O-])c1cccs1.[Zn+2] | > 100 µM | 88 |  | > 100 | > 100 | 52.1 µM | > 100 µM | 42 |  |  |  |  |  |  |  |  |  |  |  |  |
| COc1ccc(C2C3=C(COC3=O)Oc3cc4c(cc32)OCO4)cc1 (stereo not drawn) |  | > 100 | > 100 µM | 81.1 | 74 | > 100 µM | > 100 µM | > 100 | > 100 |  |  |  |  |  |  |  |  |  |  |  |
| Cc1ccc(NC(=O)CC2C(=O)Nc3ccccc3S2=O)c(C)c1 (stereo not drawn) | 61.3 µM | > 87.1 | 41.6 µM | > 52.5 | 45.3 | 35.9 µM | > 64.3 µM | 42.4 | 24.1 |  |  |  |  |  |  |  |  |  |  |  |
| COC1=C(OC)[C@]2(OC)c3c(O)c(OC)c4c(c3O[C@@]23O[C@@H](c2ccccc2)CC=C3C1=O)[C@@H](O)C[C@H](c1ccccc1)O4 | 2.35 µM | 0.742 | 3.38 µM | 0.354 | 2.6 |  | 2.97 µM | 1.3 | 0.406 | 0.0972 | 0.199 | 1.48 | 0.0852 | 1.33 |  | 1.42 | 0.326 | 0.87 | 0.27 | 0.348 µM |
